Experimental data published in US4749710A, “Immunosuppressive agents” (priority 1985, dated 1988).
Where two headings read alike, the source gives them in different places.

How the values were obtained:
[1] = system: murine cytotoxic T-lymphocyte responses; experiment: cells; format: cell-based; details: for CTL activity (% specific ^51 Cr release): 90:1 effector to target
Text: Immunosuppressive Activity of Vitamin D compounds on cytotoxic T lymphocyte Responses-General Test Description
Cytotoxic thymus-derived lymphocytes (CTL) constitute an important aspect of immune function and, as a result, play a key role in the rejection of grafted cells, tissues and organs. It is, therefore, essential to suppress CTL generation in a clinical situation in which CTL function is antithetical to the desired outcome as, for example, in transplantation. Cytotoxic T-lymphocytes have been studied for several years by many investigators and methods to evaluate CTL responses in vitro are well established.
As described below, CTL responses as affected by Vitamin D derivatives, were studied in vitro using cells from lab animals and human volunteers. Cytotoxic T-lymphocytes were generated from responder lymphoid cells in tissue culture medium during an incubation period of 6 days by exposure to foreign stimulator cells, i.e. from a genetically disparate source. A portion of the resultant effector cells were CTL capable of killing fresh cells related to the stimulator cells employed in the 6 day culture. To detect killing of cells by CTL, fresh target cells were incubated in excess ^51 chromium (as sodium chromate) until they were extensively labelled. Since target cells will retain the internalized radioisotope as long as they are viable but release the label when they are killed, CTL activity was assessed by quantitating the chromium released from target cells after a 4 or 18 hour incubation with CTL. Immunosuppression produced by Vitamin D derivatives was gauged as the ability to inhibit CTL responses during the initial incubation period relative to control cultures to which no Vitamin D derivative was added.
Female BALB/c By and C57BL/6 mice were obtained from Jackson Laboratories and were used between 8 and 10 weeks of age. Mice were given food and water ad libitum and were kept in a 12 hour light and 12 hour dark cycle.
For murine cultures, minimal essential medium with Hank's salts was supplemented to 1 millimolar with sodium pyruvate, to 0.1 millimolar with nonessential amino acids, to 2 millimolar with 1-glutamine, to 10% (v/v) with heat-inactivated fetal bovine serum, to 50 micrograms per ml with gentamicin, and to 1000 milligrams per liter with sodium bicarbonate and was used as tissue culture medium.
Stock solutions of Vitamin D derivatives were made in argon-saturated ethanol at a final concentration of 1×10^-2 molar, were covered with argon before sealing and were stored at -20° C. in the dark. Reduced lighting conditions were always employed when working with compounds. Compounds were diluted in tissue culture medium to 1×10^-4 molar and all subsequent dilutions were done in tissue culture medium containing 1% v/v ethanol. The final dilution into culture vessels was 1:10 thus keeping the vehicle concentration constant at 0.1% while varying the concentration of compound as tabulated in the results. For purposes of control, mixed leukocyte cultures were incubated in medium only (medium control) or in medium containing a final concentration of 0.1% ethanol (vehicle control).
Murine cytotoxic T-lymphocytes were generated in mixed leukocyte cultures by known methods. Specifically, single cell suspensions were prepared from spleens by gentle disruption in balanced salt solution (Hanks' balanced salt solution supplemented to 10%, v/v, with fetal bovine serum). After sedimentation on ice to remove particulate debris, cell suspensions were centrifuged at 400xg and were resuspended in fresh balanced salt solution. Cells to be used as stimulator cells were precluded from proliferating or generating cytotoxic T-lymphocytes by exposure to 1000 rads of gamma irradiation using a ^137 cesium source. […]

[2] = system: human cytotoxic T-lymphocyte responses; experiment: Inhibition of human CTL responses (mixed leukocyte-tumor cultures, HT-144 melanoma, ^51 Cr release); format: cell-based; details: for inhibition at 1 µM / inhibition at 0.1 µM: Homo sapiens, T-lymphocyte, read-out: Inhibition of CTL activity (%)
Description: Human cells for the tests described below were taken from four donors designated I, II, III, and IV in the tables below.
Stock solutions of Vitamin D derivatives were prepared as they were prepared above in the murine tests.
Human cytotoxic T-lymphocytes were generated in mixed leukocyte-tumor cultures by known methods. Specifically, blood from normal volunteer donors was drawn into heparinized syringes, diluted 1:1 with calcium-magnesium free Hanks' balanced salt solution (Ca-Mg free HBSS), and layered over lymphocyte separation medium (Litton Bionetics, Kensington, MD). After centrifugation at 500xg for 20-30 min at room temperature, peripheral blood mononuclear cells were harvested from the interface. The peripheral blood mononuclear leukocytes were centrifuged and resuspended in Ca-Mg free HBSS and were subsequently separated from platelets by centrifugation at 500xg through a solution of 20% sucrose and 1% human AB serum in Ca-Mg free HBSS. The cells were washed once and finally resuspended in tissue culture medium. […] Cells to be used as stimulator cells in mixed leukocyte-tumor cultures were irradiated with 10,000 rads of gamma irradiation to preclude proliferation in culture. Mixed leukocyte-tumor cell cultures were established in 16 mm tissue culture wells at a final volume of 1.5 ml per well containing 2×10^6 peripheral blood mononuclear leukocytes and 5×10^4 irradiation-inactivated stimulator cells. In order to prevent the generation of nonspecific cytotoxic cells in these cultures, hydrocortisone sodium succinate was added to each culture at a final concentration of 1×10^-5 M. Mixed leukocyte-tumor cultures were incubated for 6 days in a humidified atmosphere of 5% CO2 in air.
Labelled target cells were washed free of unbound isotope by 3 serial washes in tissue culture medium and were finally resuspended at a concentration of 5×10^4 cells per ml.
Assays of human cytotoxic T-lymphocytes were done by known methods. Specifically, one-tenth ml aliquots of ^51 Cr-labelled target cell suspension were added to "half area" microtest plates and were incubated at 37° C. for 18 hours in a humidified atmosphere of 5% CO2 in air to permit the cells to adhere and spread on the floor of each well. Culture medium was then aspirated from each well and was replaced with 0.1 ml of tissue culture medium containing cells harvested from mixed leukocyte-tumor cultures which had been processed as described for murine mixed leukocute cultures, above. Control wells for measurement of spontaneous ^51 Cr release received medium without effector cells and wells for measurement of maximal releasable ^51 Cr received 0.1 ml of 2% sodium dodecyl sulfate in distilled water. After overnight incubation at 37° in a humidified atmosphere of 5% CO2 in air, 0.05 ml of cell-free supernatant was withdrawn from each well and the amount of released ^51 Cr was quantitated using a gamma spectrometer. The percentage of specific ^51 Cr release (CTL activity) and the percent inhibition of CTL activity were calculated with the same formulas used above for the murine CTL assay.
Tests conducted on human cytotoxic T-lymphocyte responses are reported as the mean±standard error of the mean from triplicate ^51 Cr release determinations on pooled cells from duplicate control or test cultures.

[3] = Test 1 (hexafluoro compounds), donor I, 1 × 10^-6 molar, 0.1% ethanol, effector to target 8:1
[4] = Test 1 (hexafluoro compounds), donor I, 1 × 10^-7 molar, 0.1% ethanol, effector to target 8:1

SMILES	inhibition at 10 µM ([1]; Mus musculus, T-lymphocyte, Table I, 1 × 10^-5 molar, vs vehicle control, read-out: Inhibition of CTL activity (%)) [%]	inhibition at 1 µM ([1]; Mus musculus, T-lymphocyte, Table I, 1 × 10^-6 molar, vs vehicle control, read-out: Inhibition of CTL activity (%)) [%]	inhibition at 0.1 µM ([1]; Mus musculus, T-lymphocyte, Table I, 1 × 10^-7 molar, vs vehicle control, read-out: Inhibition of CTL activity (%)) [%]	inhibition at 0.01 µM ([1]; Mus musculus, T-lymphocyte, Table I, 1 × 10^-8 molar, vs vehicle control, read-out: Inhibition of CTL activity (%)) [%]	inhibition at 0.001 µM ([1]; Mus musculus, T-lymphocyte, Table I, 1 × 10^-9 molar, vs vehicle control, read-out: Inhibition of CTL activity (%)) [%]	inhibition at 0.0001 µM ([1]; Mus musculus, T-lymphocyte, Table I, 1 × 10^-10 molar, vs vehicle control, read-out: Inhibition of CTL activity (%)) [%]	CTL activity (% specific ^51 Cr release) ([1]; Table I, 1 × 10^-5 molar)	CTL activity (% specific ^51 Cr release) ([1]; Table I, 1 × 10^-6 molar)	CTL activity (% specific ^51 Cr release) ([1]; Table I, 1 × 10^-7 molar)	CTL activity (% specific ^51 Cr release) ([1]; Table I, 1 × 10^-8 molar)	CTL activity (% specific ^51 Cr release) ([1]; Table I, 1 × 10^-9 molar)	CTL activity (% specific ^51 Cr release) ([1]; Table I, 1 × 10^-10 molar)	suppression of murine cytotoxic T-lymphocyte responses (in words) ([1]; in vitro)	inhibition at 1 µM [2, 3] [%]	inhibition at 0.1 µM [2, 4] [%]	CTL activity (% specific ^51 Cr release) [2, 3] [% specific ^51 Cr release]	CTL activity (% specific ^51 Cr release) [2, 4] [% specific ^51 Cr release]	inhibition at 0.1 µM [2] [%]	inhibition at 1 µM [2] [%]
C=C1/C(=C\C=C2/CCC[C@]3(C)[C@@H]([C@H](C)CC4CC(C)(O)C(=O)O4)CC[C@@H]23)C[C@@H](O)C[C@@H]1O (stereo partly drawn) [1α,25-(OH)2 --D3-(26,23)-lactone, 1α,25-Dihydroxycholecalciferol-26,23-lactone]	80	63	37	9	3	7	11	20	34	49	52	50	suppress murine cytotoxic T-lymphocyte responses						
C=C1/C(=C\C=C2/CCC[C@]3(C)[C@@H]([C@H](C)C=CCC(O)(C(F)(F)F)C(F)(F)F)CC[C@@H]23)C[C@@H](O)C[C@@H]1O [26,26,26,27,27,27-Hexafluoro-1α,25-dihydroxy-Δ^22-cholecalciferol]														80	64	13 ± 0.1	23 ± 2		
C=C1/C(=C\C=C2/CCC[C@]3(C)[C@@H]([C@H](C)CCCC(O)(C(F)(F)F)C(F)(F)F)CC[C@@H]23)C[C@@H](O)C[C@@H]1O [26,26,26,27,27,27-hexafluoro-1α,25-dihydroxycholecalciferol]																15 ± 2	23 ± 3	64	77
